Experimental data reported in patent US5349127A, “Expression of herbicide metabolizing cytochromes P450” (priority 1992, dated 1994).

Legend:
[1] = tested on: Arabidopsis thaliana seedlings; test: Seed germination assay of transgenic Arabidopsis (Example 26); type: in vivo; parameters: Visual Inhibition Ratings of Seedlings: key: 4: complete inhibition; 1: no inhibition; details: for #R number of resistant seedlings / #S number of sensitive seedlings / % R percent of seedlings which are resistant: 10015 5 ppb
Procedure: T2 seed was harvested from selected putative transformants and sown on GM medium containing 50 mg/l kanamycin and that containing 5 ppb 10015. Plates were sealed with filter tape, cold treated for 2 or more days at 4° C., and then incubated for 10 to 20 days at 23° C. under constant illumination as described above. Seedlings were scored as resistant (green, true leaves develop) and sensitive (no true leaves develop). […] The percent of resistant seedlings is inversely proportional with the two selections. Kanamycin is a positive selection for those seedlings that carry the foreign DNA.
Selected T2 seedlings that were kanamycin resistant were transplanted to soil and were grown to maturity at 21° C. daytime (14 hours) 18° C. nighttime (10 hours) at 65-80% relative humidity. T3 seed was collected, sterilized, and germinated on GM medium containing 50 mg/l kanamycin and that containing 5 ppb 10015. Plates were sealed with filter tape, cold treated for 2 or more days at 4° C., and then incubated for 10 to 20 days at 23° C. under constant illumination as described above. Two of the six plants produced seed that was 100% resistant to kanamycin and 100% sensitive to 10015; they are homozygous for the inserted DNA. The other four parents are heterozygous and show an inverse proportion of kanamycin and 10015 resistant seedlings. […] Therefore, seedlings expressing the P450SU1 gene can be negatively selected.
Germination assays of homozygous seed on various concentrations of 10015 were performed to assay the relative sensitivity to 10015 produced by the three different promoters and between independent transformants. Seed was sterilized, sown on GM medium with 0, 0.5, 1, 2, 5, 10 and 20 ppb 10015, incubated, and scored as described above. In addition, seedlings are rated on a scale of one to three for the amount of growth.
Over 500 seed that are homozygous for the P450SU1 coding region were sown on the same plates. The plates were sealed, cold-treated, and incubated as previously described. […] Wild type seedlings were unaffected by the dying transformed seedlings. In addition, when greater than 10,000 seed of a homozygous Cab-SU111 plant was sown on GM medium with 10 ppb 10015, then cold-treated and incubated as described above, eighteen seedlings were resistant to 10015 and were unaffected by neighboring seedlings.

[2] = tested on: S. lividans pCAO200SU2-FeS-A#11; test: Sulfonylurea metabolism by washed cell suspension (Examples 11-12); type: in vitro ADME, Streptomyces lividans; details: for concentration in supernatant: substrate 10010

COc1cc(OC)nc(NC(=O)NS(=O)(=O)c2cccc3c2S(=O)(=O)N(C(C)C)C3)n1 [compound 10015]
Visual Inhibition Ratings of Seedlings ([1]; 12.1.1 Cab-SU111, 1 ppb 10015): 1
Visual Inhibition Ratings of Seedlings ([1]; 12.1.1 Cab-SU111, 2 ppb 10015): 1
Visual Inhibition Ratings of Seedlings ([1]; 12.1.1 Cab-SU111, 5 ppb 10015): 2
Visual Inhibition Ratings of Seedlings ([1]; 12.1.1 Cab-SU111, 10 ppb 10015): 4
Visual Inhibition Ratings of Seedlings ([1]; 12.1.1 Cab-SU111, 20 ppb 10015): 4
Visual Inhibition Ratings of Seedlings ([1]; 12.16.2 Cab-SU111, 1 ppb 10015): 1
Visual Inhibition Ratings of Seedlings ([1]; 12.16.2 Cab-SU111, 2 ppb 10015): 1
Visual Inhibition Ratings of Seedlings ([1]; 12.16.2 Cab-SU111, 5 ppb 10015): 1
Visual Inhibition Ratings of Seedlings ([1]; 12.16.2 Cab-SU111, 10 ppb 10015): 1
Visual Inhibition Ratings of Seedlings ([1]; 12.16.2 Cab-SU111, 20 ppb 10015): 1
Visual Inhibition Ratings of Seedlings ([1]; 12.20.5 Cab-SU111, 1 ppb 10015): 1
Visual Inhibition Ratings of Seedlings ([1]; 12.20.5 Cab-SU111, 2 ppb 10015): 2
Visual Inhibition Ratings of Seedlings ([1]; 12.20.5 Cab-SU111, 5 ppb 10015): 3
Visual Inhibition Ratings of Seedlings ([1]; 12.20.5 Cab-SU111, 10 ppb 10015): 4
Visual Inhibition Ratings of Seedlings ([1]; 12.20.5 Cab-SU111, 20 ppb 10015): 4
Visual Inhibition Ratings of Seedlings ([1]; 13.3.1 SU18, 1 ppb 10015): 1
Visual Inhibition Ratings of Seedlings ([1]; 13.3.1 SU18, 2 ppb 10015): 1
Visual Inhibition Ratings of Seedlings ([1]; 13.3.1 SU18, 5 ppb 10015): 2
Visual Inhibition Ratings of Seedlings ([1]; 13.3.1 SU18, 10 ppb 10015): 4
Visual Inhibition Ratings of Seedlings ([1]; 13.3.1 SU18, 20 ppb 10015): 4
Visual Inhibition Ratings of Seedlings ([1]; 13.4.6 SSU-SU111, 1 ppb 10015): 1
Visual Inhibition Ratings of Seedlings ([1]; 13.4.6 SSU-SU111, 2 ppb 10015): 1
Visual Inhibition Ratings of Seedlings ([1]; 13.4.6 SSU-SU111, 5 ppb 10015): 3
Visual Inhibition Ratings of Seedlings ([1]; 13.4.6 SSU-SU111, 10 ppb 10015): 4
Visual Inhibition Ratings of Seedlings ([1]; 13.4.6 SSU-SU111, 20 ppb 10015): 4
Visual Inhibition Ratings of Seedlings ([1]; 17.1.10 SU18, 1 ppb 10015): 1
Visual Inhibition Ratings of Seedlings ([1]; 17.1.10 SU18, 2 ppb 10015): 1
Visual Inhibition Ratings of Seedlings ([1]; 17.1.10 SU18, 5 ppb 10015): 3
Visual Inhibition Ratings of Seedlings ([1]; 17.1.10 SU18, 10 ppb 10015): 4
Visual Inhibition Ratings of Seedlings ([1]; 17.1.10 SU18, 20 ppb 10015): 4
Visual Inhibition Ratings of Seedlings ([1]; 17.17.3 SU18, 1 ppb 10015): 1
Visual Inhibition Ratings of Seedlings ([1]; 17.17.3 SU18, 5 ppb 10015): 1
Visual Inhibition Ratings of Seedlings ([1]; 17.17.3 SU18, 10 ppb 10015): 2
Visual Inhibition Ratings of Seedlings ([1]; 17.17.3 SU18, 20 ppb 10015): 4
Visual Inhibition Ratings of Seedlings ([1]; 17.74.4 SSU-SU111, 1 ppb 10015): 1
Visual Inhibition Ratings of Seedlings ([1]; 17.74.4 SSU-SU111, 2 ppb 10015): 1
Visual Inhibition Ratings of Seedlings ([1]; 17.74.4 SSU-SU111, 5 ppb 10015): 2
Visual Inhibition Ratings of Seedlings ([1]; 17.74.4 SSU-SU111, 10 ppb 10015): 3
Visual Inhibition Ratings of Seedlings ([1]; 17.74.4 SSU-SU111, 20 ppb 10015): 3
Visual Inhibition Ratings of Seedlings ([1]; 17.92.3 SSU-SU111, 1 ppb 10015): 1
Visual Inhibition Ratings of Seedlings ([1]; 17.92.3 SSU-SU111, 2 ppb 10015): 1
Visual Inhibition Ratings of Seedlings ([1]; 17.92.3 SSU-SU111, 5 ppb 10015): 1
Visual Inhibition Ratings of Seedlings ([1]; 17.92.3 SSU-SU111, 10 ppb 10015): 1
Visual Inhibition Ratings of Seedlings ([1]; 17.92.3 SSU-SU111, 20 ppb 10015): 1
#R number of resistant seedlings ([1]; T2 seed ID 12-1, pCab-SU111): 3
#S number of sensitive seedlings ([1]; T2 seed ID 12-1, pCab-SU111): 10
% R percent of seedlings which are resistant ([1]; T2 seed ID 12-1, pCab-SU111): 23%
#R number of resistant seedlings ([1]; T2 seed ID 12-2, pCab-SU111): 13
#S number of sensitive seedlings ([1]; T2 seed ID 12-2, pCab-SU111): 0
% R percent of seedlings which are resistant ([1]; T2 seed ID 12-2, pCab-SU111): 100%
#R number of resistant seedlings ([1]; T2 seed ID 12-4, pCab-SU111): 12
#S number of sensitive seedlings ([1]; T2 seed ID 12-4, pCab-SU111): 8
% R percent of seedlings which are resistant ([1]; T2 seed ID 12-4, pCab-SU111): 60%
#R number of resistant seedlings ([1]; T2 seed ID 12-5, pCab-SU111): 15
#S number of sensitive seedlings ([1]; T2 seed ID 12-5, pCab-SU111): 0
% R percent of seedlings which are resistant ([1]; T2 seed ID 12-5, pCab-SU111): 100%
#R number of resistant seedlings ([1]; T2 seed ID 12-6, pCab-SU111): 5
#S number of sensitive seedlings ([1]; T2 seed ID 12-6, pCab-SU111): 9
% R percent of seedlings which are resistant ([1]; T2 seed ID 12-6, pCab-SU111): 36%
#R number of resistant seedlings ([1]; T2 seed ID 12-7, pCab-SU111): 9
#S number of sensitive seedlings ([1]; T2 seed ID 12-7, pCab-SU111): 13
% R percent of seedlings which are resistant ([1]; T2 seed ID 12-7, pCab-SU111): 40%
#R number of resistant seedlings ([1]; T2 seed ID 12-8, pCab-SU111): 1
#S number of sensitive seedlings ([1]; T2 seed ID 12-8, pCab-SU111): 7
% R percent of seedlings which are resistant ([1]; T2 seed ID 12-8, pCab-SU111): 13%
#R number of resistant seedlings ([1]; T2 seed ID 12-9, pCab-SU111): 3
#S number of sensitive seedlings ([1]; T2 seed ID 12-9, pCab-SU111): 9
% R percent of seedlings which are resistant ([1]; T2 seed ID 12-9, pCab-SU111): 25%
#R number of resistant seedlings ([1]; T2 seed ID 12-10, pCab-SU111): 9
#S number of sensitive seedlings ([1]; T2 seed ID 12-10, pCab-SU111): 0
% R percent of seedlings which are resistant ([1]; T2 seed ID 12-10, pCab-SU111): 100%
#R number of resistant seedlings ([1]; T2 seed ID 12-11, pCab-SU111): 4
#S number of sensitive seedlings ([1]; T2 seed ID 12-11, pCab-SU111): 0
% R percent of seedlings which are resistant ([1]; T2 seed ID 12-11, pCab-SU111): 100%
#R number of resistant seedlings ([1]; T3 seed ID 12-1-1, pCab-SU111): 0
#S number of sensitive seedlings ([1]; T3 seed ID 12-1-1, pCab-SU111): 196
% R percent of seedlings which are resistant ([1]; T3 seed ID 12-1-1, pCab-SU111): 0%
#R number of resistant seedlings ([1]; T3 seed ID 12-1-2, pCab-SU111): 0
#S number of sensitive seedlings ([1]; T3 seed ID 12-1-2, pCab-SU111): 191
% R percent of seedlings which are resistant ([1]; T3 seed ID 12-1-2, pCab-SU111): 0%
#R number of resistant seedlings ([1]; T3 seed ID 12-1-3, pCab-SU111): 42
#S number of sensitive seedlings ([1]; T3 seed ID 12-1-3, pCab-SU111): 90
% R percent of seedlings which are resistant ([1]; T3 seed ID 12-1-3, pCab-SU111): 32%
#R number of resistant seedlings ([1]; T3 seed ID 12-1-4, pCab-SU111): 80
#S number of sensitive seedlings ([1]; T3 seed ID 12-1-4, pCab-SU111): 129
% R percent of seedlings which are resistant ([1]; T3 seed ID 12-1-4, pCab-SU111): 37%
#R number of resistant seedlings ([1]; T3 seed ID 12-1-5, pCab-SU111): 99
#S number of sensitive seedlings ([1]; T3 seed ID 12-1-5, pCab-SU111): 177
% R percent of seedlings which are resistant ([1]; T3 seed ID 12-1-5, pCab-SU111): 36%
#R number of resistant seedlings ([1]; T3 seed ID 12-1-6, pCab-SU111): 83
#S number of sensitive seedlings ([1]; T3 seed ID 12-1-6, pCab-SU111): 152
% R percent of seedlings which are resistant ([1]; T3 seed ID 12-1-6, pCab-SU111): 35%
#R number of resistant seedlings ([1]; WT): 58
#S number of sensitive seedlings ([1]; WT): 5
% R percent of seedlings which are resistant ([1]; WT): 92%
Visual Inhibition Ratings of Seedlings ([1]; Wild type, 1 ppb 10015): 1
Visual Inhibition Ratings of Seedlings ([1]; Wild type, 2 ppb 10015): 1
Visual Inhibition Ratings of Seedlings ([1]; Wild type, 5 ppb 10015): 1
Visual Inhibition Ratings of Seedlings ([1]; Wild type, 10 ppb 10015): 1
Visual Inhibition Ratings of Seedlings ([1]; Wild type, 20 ppb 10015): 1

COC(=O)c1ccccc1S(=O)(=O)NC(=O)Nc1nc(C)cc(C)n1 [compound 10010, N-[(4,6-dimethylpyrimidin-2-yl)aminocarbonyl]-2-methoxycarbonylbenzenesulfonamide]
concentration in supernatant ([2]; 2 h): 90 µM
concentration in supernatant ([2]; 4 h): 84 µM
concentration in supernatant ([2]; 6 h): 72 µM
metabolism compared with uninduced S. griseolus PH2001 ([2]; summary of Example 12): more readily than uninduced S. griseolus PH2001
